Consider 12 molecules from patent US5354747A, “2-, 3-, 4-, 5-, 6-, 7-, 8-, 9- and/or 10-substituted dibenzoxazepine and dibenzthiazepine compounds, pharmaceutical compositions and methods of use” (G. D. Searle & Co., priority 1993, dated 1994).

Structures can show the parent of a compound that is named as a salt.

For experiment [1], the system named is Charles River male albino mice. In words: Writhing Assay (PBQ-induced writhing, analgesic activity). The format is in vivo. Particulars: Intragastric, 30 mg per kilogram of body weight 25 min before PBQ i.p., writhes equal to or less than one-half the control median; for responders at 30 mg/kg: Mus musculus, po, 25 min, read-out: number of mice out of nine or ten in which a test compound produced analgesia (converted). The text has this:
The Writhing Assay is one of the most widely-used experimental procedures for measuring the analgesic activity of different narcotic and nonnarcotic analgesic agents, and involves the continuous, chemically-induced pain of visceral origin to an animal, such as a mouse or rat. [Gyires et al., Arch. int. Pharmacodyn, 267, 131-140 (1984); […] al., Fed. Proc., 15, 494 (1956); Koster et al., Fed. Proc., 18, 412 (1959); and Witken et al., J. Pharmacol. exp. Ther., 133, 400-408 (1961).] Chemicals which may be used to induce this pain include phenylbenzoquinone (PBQ) and acetic acid. As a result of the chemical irritation to the animal, a characteristic stretching and writhing of the animal (dorsiflexion of the animal's back, extension of its hindlimbs and the strong contraction of its abdominal musculature) will generally occur. […] Drugs which reduce the number of writhes of the animal appear to restore the normal nociceptive threshold of the animal. Charles River male albino mice, weighing 20 to 30 grams were used in this assay. Twenty-five minutes after intragastric administration to nine or ten mice of 30 mg per kilogram of body weight of a compound of the present invention ("test compound"), […] of body weight of a 0.025% w/v solution of PBQ was injected intraperitoneally into each mouse. Ten mice which were given saline in place of a test compound of the invention were used as a control group. Five minutes later, each mouse was individually placed into a glass beaker for observation, and the number of writhes occurring during the following ten-minute period was counted. A test compound was considered to have produced analgesia in a mouse if, in accordance with the conditions set forth above, and under the test criteria employed for this assay, after the administration of 30 mg per kilogram of body weight of a compound of the present invention to the mouse, the number of writhes elicited by a mouse injected with PBQ was equal to, or less than, one-half the median number of writhes recorded for the saline-treated control group of mice that day, as described by Taber in "Predictive Value of Analgesic Assays in Mice and Rats," Advances in Biochemical Psychopharmacology, 8, 191 (1974). […] If this initial screening dose of the test compound produced analgesia in seven of nine or ten mice, then the effect of additional doses of the test compound on the writhing response was evaluated, and then the ED50 value (that dose of a compound which produced analgesia in 50% of the mice to which the compound was administered) was generally calculated. A maximum likelihood function was used to determine the ED50 value. (The slopes of the dose-response curves for all test compounds analyzed were compared as described by Tallarida and Murray, Manual of Pharmacologic Calculations, Page 11 (Springer Verlag, New York, 1981)). The results for the particular compounds of the present invention analyzed in this assay, and discussed in the examples identified below which correspond thereto, are presented in Table 1 hereinbelow. The compounds of the present invention which were tested in this assay, and for which results are presented in Table 1, correspond to the particular examples specified in Table 1. The fractions indicate the number of mice out of nine or ten in which a test compound produced analgesia, and the whole numbers are the calculated ED50 values.
(In writhing tests, fewer writhes than in controls are read as antinociception.)

Experiment [2] concerns prostaglandin E2 -induced contractions of segments of guinea pig ileum. In words: Prostaglandin (PGE) Antagonism Assay. Conditions: dose ratio of prostaglandin E2 EC50 doses with/without test compound, initial concentration 3 micromolar. It is filed as cell-based. The procedure: In order to determine the effectiveness of several of the compounds of the present invention ("test compounds") as prostaglandin E2 antagonists,a prostaglandin antagonism assay was conducted, as described below, to determine the ability of these compounds to inhibit prostaglandin E2 -induced contractions of segments of guinea pig ileum. […] Male albino guinea pigs weighing 200 to 500 grams were sacrificed by cervical dislocation. The ilea were then quickly removed from the guinea pigs and placed in a modified Tyrode solution, a solution which is known to those skilled in the art, containing one-half of the usual amount of magnesium ions. Segments of ileum about 2 cm long were then cut and mounted in a 10-mL tissue bath containing the modified Tyrode solution. The solution was maintained at 37° C. and aerated with a gaseous mixture of 95% oxygen and 5% carbon dioxide. Data for a control prostaglandin E2 dose response curve plotting concentration of prostaglandin E2 versus the intensity of contractions, detected isotonically, was then obtained by experimentally adjusting the dose of the prostaglandin E2 being injected into the tissue bath, in a manner known by those of skill in the art. Solutions or suspensions containing an initial concentration (3 micromolar) of a test compound in modified Tyrode solution ("test solutions/suspensions") were then separately substituted for the control bath solution. Each test solution/suspension was then kept in constant contact with the ileum tissue, except for brief periods to drain the bath in preparation for rinsing with fresh test solution/suspension. A second prostaglandin E2 dose response curve was then generated for prostaglandin E2 in the presence of a test compound. A dose ratio (DR) of EC50 doses was then calculated from the results of each test in a manner known by those of skill in the art. A control dose response curve (DRC) is produced in isolated segments of guinea pig ileum mounted in an automated apparatus with six concentrations of prostaglandin E2. A solution or suspension of test compound is substituted for the control bathing solution and is incubated for thirty minutes. An additional prostaglandin E2 dose response curve is produced in the presence of the test compound. A dose ratio is calculated from the EC50 values obtained from duplicate replications on each concentration of the test compound. […] The results of this prostaglandin antagonism assay are presented in Table 2 below in terms of their dose ratio. The compounds of the present invention which were tested in this assay, and for which results are presented in Table 2, correspond to the particular examples specified in Table 2.

`Cl.O=C(c1ccncc1)N1CCN(C(=O)N2Cc3ccccc3Oc3ccc(Cl)cc32)CC1` [Example 29, 1-[(8-chlorodibenz[b,f][1,4]oxazepin-10(11H)-yl)carbonyl]-4-(4-pyridinylcarbonyl)piperazine, monohydrochloride]: the responders at 30 mg/kg in experiment [1] is 50%. Also, the “Dose Ratio” value in experiment [2] came out at 2.2.
Taken in the same sequence, the figures for `O=C(CCc1cccnc1)N1CCN(C(=O)N2Cc3ccccc3Oc3ccc(Cl)cc32)CC1` [Example 33, 1-[(8-chlorodibenz[b,f][1,4]oxazepin-10(11H)-yl)carbonyl]-4-[(1-oxo-3-(3-pyridinyl)propyl]piperazine, monohydrochloride] were 80% and 6.7.
Taken in the same sequence, the figures for `Cl.O=C(N1CCN(CCc2ccccc2)CC1)N1Cc2ccccc2Oc2ccc(Cl)cc21` [Example 40, 8-Chloro-10,11-dihydro-10-[[4-(2-phenylethyl)-1-piperazinyl]carbonyl]dibenz[b,f][1,4]oxazepine, monohydrochloride] were 20% and 4.1.
Taken in the same sequence, the figures for `O=C(N1CCN(CCc2ccccc2)CC1)N1Cc2ccccc2Oc2ccccc21` [Example 41, 10,11-dihydro-10-[[4-(2-phenylethyl)-1-piperazinyl]carbonyl]dibenz[b,f][1,4]oxazepine, monohydrochloride] were 100% and 2.6.
As to `Cl.O=C(N1CCN(c2ccccc2)CC1)N1Cc2ccccc2Oc2ccc(Cl)cc21` [Example 43, 8-chloro-10,11-dihydro-10-[(4-phenyl-1-piperazinyl)carbonyl]dibenz[b,f][1,4]oxazepine, hydrochloride], the responders at 30 mg/kg in experiment [1] is 10%. Besides, the “Dose Ratio” value in experiment [2] turned out to be 0.8.
As for `Cl.O=C(N1CCN(Cc2ccsc2)CC1)N1Cc2ccccc2Oc2ccc(Cl)cc21` [Example 47, 8-chloro-10,11-dihydro-10-[[4-(3-thienylmethyl)-1-piperazinyl]carbonyl]dibenz[b,f][1,4]oxazepine, monohydrochloride], in experiment [1], the responders at 30 mg/kg is 70%. Moreover, the “Dose Ratio” value in experiment [2] was found to be 2.9.
For the molecule `Cl.O=C(N1CCN(Cc2cccs2)CC1)N1Cc2ccccc2Oc2ccc(Cl)cc21` [Example 54, 8-chloro-10,11-dihydro-10-[[4-(2-thienylmethyl)-1-piperazinyl]carbonyl]dibenz[b,f][1,4]oxazepine, monohydrochloride], the responders at 30 mg/kg in experiment [1] is 60%. Moreover, the “Dose Ratio” value in experiment [2] is reported as 2.4.
Taken in the same sequence, the figures for `Cl.O=C(Cc1cccnc1)N1CCN(C(=O)N2Cc3ccccc3Oc3ccc(Cl)cc32)CC1` [Example 56, 1-[(8-chlorodibenz[b,f][1,4]oxazepin-10(11H)-yl)carbonyl]-4-(3-pyridinylacetyl)piperazine, monohydrochloride] were 50% and 3.3.
As to `Cl.O=C(c1cccnc1)N1CCN(C(=O)N2Cc3ccccc3Oc3ccc(Cl)cc32)CC1` [Example 58, 1-[(8-chlorodibenz[b,f][1,4]oxazepin-10(11H)-yl)carbonyl]-4-(3-pyridinylcarbonyl)piperazine, hydrochloride], the responders at 30 mg/kg in experiment [1] is 70%. For the same molecule, the “Dose Ratio” value in experiment [2] is 6.6.
As to `Cl.O=C(N1CCCNCC1)N1Cc2ccccc2Oc2ccc(Cl)cc21` [Example 61, 8-chloro-10-[(hexahydro-1H-1,4-diazepin-1-yl)carbonyl]-10,11-dihydrodibenz[b,f][1,4]oxazepine, hydrochloride], the responders at 30 mg/kg in experiment [1] was 60%. Also, in experiment [2], the “Dose Ratio” value came to 4.8.
Taken in the same sequence, the figures for `Cl.O=C(N1CCN(Cc2ccco2)CC1)N1Cc2ccccc2Oc2ccc(Cl)cc21` [Example 65, 8-chloro-10-[[4-(2-furanylmethyl)-1-piperazinyl]carbonyl]-10,11-dihydrodibenz[b,f][1,4]oxazepine, monohydrochloride] were 40% and 8.4.
`CCN(CC)CCC1=CCN(C(=O)N2Cc3ccccc3Oc3ccc(Cl)cc32)CC1.Cl` [Example 67, 8-chloro-10-[[4-[2-(diethylamino)ethyl]-3,6-dihydro-1(2H)-pyridinyl]carbonyl]-10,11-dihydrobenz[b,f][1,4]oxazepine, hydrochloride]: in experiment [1], the “number of mice out of nine or ten in which a test compound produced analgesia” value is given as 6/10. Also, the “Dose Ratio” value in experiment [2] amounted to 10.2.
